Data from US20230312652A1, “NOVEL PEPTIDES AND USES THEREOF” (Aarhus Universitet, priority 2020, published 2023).
Where a SMILES comes first, the peptide text is derived from it.

Experiments:
CREB = CREB activation in striatum and hippocampus of wild-type mice after IV injection; type: in vivo, mouse; conditions: 0.26 mg/kg IV, 1 hour after injection
Method: To assess this, 8 weeks old wild-type mice were injected intravenously with either 0.26 mg/kg of peptide P1 or LP1 dissolved in saline. 1 hour after the injection, the mice were sacrificed by cervical dislocation and striatal tissue was isolated by dissection and immediately lysed using a TissueLyser in lysis buffer containing cOmplete and DTT. The samples were subsequently homogenized by sonication. The phosphorylation of CREB on serine 133 was subsequently validated by western blotting. The levels of phosphorylated CREB were normalized to the corresponding beta-actin levels. Student's t-test was used for statistical analysis.

[1] = Stability in L-His buffer formulation with hyaluronidase; type: physicochemical; conditions: up to 7 days
Method: Buffer solution containing 4.4 mM L-histidine, 140 mM NaCl, 0.2% w/V Tween 20 and 1500 IU/mL hyaluronidase was incubated with 1 mM P1 at −20° C., 4° C. and 25° C. for up to 7 days. LCMS was used to ascertain the amount of P1 remaining in the solutions.

[2] = test system: BDNF, TrkB, PGC1a, DARPP32; assay: Neurotrophic and mitochondrial proteins in cortex of R6/2 mice after daily SC administration; type: in vivo, mouse; conditions: 13 mg/kg SC daily, 8 to 12 weeks of age
Method: In a separate study, we validated target engagement of P1 (SEQ ID NO: 1) in R6/2 mice (mouse model of Huntington's), when treated for a prolonged period in the late stage of disease in this model. R6/2 mice were obtained from the Jackson Laboratory as: • FEMALE B6CBA-Tg(HDexon1)62Gpb/3J, stock 006494. Hemizygous (R6/2) • FEMALE B6CBA-Tg(HDexon1)62Gpb/3J, stock 006494. NonCarrier (WT controls)
The R6/2 mice were injected with a daily dose of 13 mg/kg of P1 subcutaneously in 4.38 mM L-His, 140 mM NaCl, 0.2% Tween-20 and 1500 IU hyaluronidase (pH 6.15) between 8 weeks to 12 weeks of age. At 12 weeks of age, mice were sacrificed and their brains removed and both hippocampus—cortex and striatal tissue was isolated and lysed in RIPA lysis buffer containing containing cOmplete and phosSTOP.
Levels of both BDNF and its receptor, TrkB, were validated along with levels of the mitochondrial master regulator PGC1a. In addition, levels of DARPP32, a marker of medium spiny neurons (MSN), which are the neurons that ultimately perish in HD, were evaluated in cortex tissue.

[3] = test system: BDNF, PGC1a and TFEB in GM04719 fibroblasts; assay: BDNF, PGC1a and TFEB levels in HD patient-derived fibroblasts, western blotting; type: cell-based, human; conditions: 1 uM
Method: To validate the therapeutic potential of P1 in Huntington's Disease, we likewise assessed whether P1 could increase the three distinct pathways in fibroblasts derived from a HD patient. The fibroblasts were bought from Coriell Biobank. The patient-derived fibroblasts, named GM04719, was sampled from a person with clinical onset […]. The patient has 44-CAG repeats in their HTT-gene.
To assess target engagement by P1, 30,000-50,000 fibroblasts were seeded per well in a 96-well plate. The following day, the cells were treated with 1 uM of P1 and incubated at 37° C. and 5% CO2 at timepoints between 2-24 hours. Hereafter, the cells were lysed in RIPA lysis buffer containing cOmplete cocktail protease inhibitor. BDNF, PGC1a and TFEB levels were analysed by western blotting normalized to beta-actin.

BDNF, TFEB and PGC1a = assay: CREB-downstream target levels in wild-type cortical neurons; type: cell-based, mouse; conditions: 1 uM, 4 hours or 6 hours
Method: Cortical neurons were isolated from p0 wild-type mice and seeded in a density of 200,000 per well (24-well tray). After 7 days in vitro the neurons were stimulated with 1 uM P1 in neurobasal A media and incubated at 37° C. and 5% CO2 for 4 hours or 6 hours. Hereafter, the neurons were lysed in RIPA lysis buffer containing cOmplete cocktail protease inhibitor.

CREB and AMPK = CREB and AMPK activation in brain of wild-type mice after subcutaneous injection; type: in vivo, mouse; conditions: SC
Method: To assess the subcutaneous administration route of peptide P1, 8 weeks old wild-type mice were subcutaneously injected with different doses ranging between 0.13 to 26 mg/kg of peptide P1 dissolved in 4.38 mM L-His, 140 mM NaCl, 0.2% Tween-20 and 1500 IU hyaluronidase (pH 6.15). Likewise, was an earlier lead peptide constituting a linear version of P1 attached to a cell-penetrating moiety (P9, SEQ ID NO: 9), tested for its ability to activate CREB in both striatum and hippocampus (in a separate study) following subcutaneous injection with 3.6 mg/kg. 2 hours after injection the mice were sacrificed by cervical dislocation and striatal tissue was isolated by dissection and snap frozen in liquid nitrogen and stored at −80° C. until further use. To assess the activation of CREB and AMPK, the tissue was lysed using a TissueLyser in lysis buffer containing cOmplete and DTT. The samples were subsequently homogenized by sonication. The phosphorylation of CREB on serine 133 and threonine 172 on AMPK was subsequently validated by western blotting and the levels of were normalized to beta-actin. Student's t-test was used for statistical analysis.

[4] = Plasma stability, human plasma; type: in vitro ADME; conditions: 2 μM, 37° C.
Method: Mouse or human plasma were incubated with 2 μM of P1 (SEQ ID NO: 1) or propantheline bromide (positive control for degradation) and left at 37° C. At each time point, stop solution was added to precipitate the solution and after mixing and centrifugation, supernatant was used for LCMS analysis.

CSCC[C@@H]1NC(=O)[C@H](C(C)C)NC(=O)[C@H](CC(=O)O)NC(=O)[C@H](CCC(=O)O)NC(=O)[C@H](CCC(=O)O)NC(=O)[C@H](Cc2c[nH]cn2)NC(=O)[C@H](CCC(=O)O)NC(=O)[C@H](C(C)C)NC(=O)[C@@H]2CCCN2C(=O)[C@H](CCC(=O)O)NC(=O)[C@H]([C@@H](C)O)NC1=O [Peptide P1, [MTEPVEHEEDV]] (cyclo(MTEPVEHEEDV))
pCREB (S133) in hippocampus (CREB): performed markedly better than LP1 | pCREB (S133) in striatum (CREB): performed markedly better than LP1 | stability in buffer (amount remaining, LCMS) ([1]; 1 mM P1, 4° C.): no stability issues | stability in buffer (amount remaining, LCMS) ([1]; 1 mM P1, 25° C.): could affect stability after 4 days | stability in buffer (amount remaining, LCMS) ([1]; 1 mM P1, −20° C.): no stability issues | BDNF levels in cortex [2]: significantly higher basal levels | DARPP32 levels in cortex [2]: tendency to increase | PGC1a levels in cortex [2]: significantly higher basal levels | TrkB levels in cortex [2]: significantly higher basal levels | PGC1a level ([3]; 6 hours of treatment): upregulated | TFEB level ([3]; 6 hours of treatment): upregulated | BDNF level ([3]; after 24 hours): significantly upregulated | BDNF level (BDNF, TFEB and PGC1a): upregulated | PGC1a level (BDNF, TFEB and PGC1a): upregulated | TFEB level (BDNF, TFEB and PGC1a): upregulated | dose resulting in the highest efficacy (CREB and AMPK; CREB and AMPK activation in striatum): 13 mg/kg | pAMPK in striatum (CREB and AMPK; doses between 0.13-13 mg/kg, 2 hours after injection): significantly activated | pCREB (S133) in striatum (CREB and AMPK; doses between 0.13-26 mg/kg, 2 hours after injection): significantly activated | half-life [4]: > 4.82 h
